Format in all cases: cell-based, human
For one series, the system named is TSP-1:CD47. As to the kind of experiment: Co-immunoprecipitation TSP-1:CD47 in HUVECs. Conditions: 100 μM vs scrambled peptide 100 μM, n = 3. On the procedure: Figure 2 TAX2 peptide impairs endothelial cell migration and inhibits angiogenesis in vitro and ex vivo A. HUVECs were treated with TAX2 (100 μM) or scrambled peptide (Ctrl, 100 μM). CD47 was immunoprecipitated from total protein lysates using anti-CD47 (clone B6H12) and non-specific IgGs were used as a negative control. Immunocomplexes were then submitted to SDS-PAGE and immunoblotted (IB) using specific TSP-1 and CD47 antibodies. Histogram represents the quantification of co-immunoprecipitated TSP-1 relative to immunoprecipitated CD47. Results are expressed as percentage compared to control (n = 3 separate experiments, t test). B. HUVECs (1 × 10^5 per well) were grown at confluence and then cell proliferation was inhibited by incubating with 10 μg/mL mitomycin C for 2 h. […] Graph represents the quantification of the wounded area. […] Hoechst-stained migrating cells attached on outside surface of the top chamber were photographed (20× objective) and counted. Results are expressed as percentage of migrated cells as compared to control. […] After 8 h incubation, HUVEC tube-like formation was observed on an inverted microscope (40×) and quantification of network total length was done using ImageJ software. […] Data are expressed as the mean ± SE from at least 3 independent experiments, each performed in triplicate. […] The transcriptional level of TSP-1 was assessed by RT-PCR and normalized to β-actin. […]

For series [1], the system named is cGMP production by endothelial cells (HUVECs). As to the kind of experiment: Intracellular cGMP after NO stimulation. Conditions: 100 μM for 15 min, then 10 μM DEA-NONOate 10 min, 1 mM IBMX, n = 3 in triplicate, p < 0.05. On the procedure: HUVECs (1 × 10^4 per well) were grown over 24 h in 96-well plates containing EGM-2 full growth medium and then serum-starved in EBM-2 containing 0.1% (v/v) BSA over additional 24 h. Cells were then pre-treated during 15 min with 100 μM TAX2 in EBM-2 without additives plus 0.1% (v/v) BSA before treatment with NO donor in presence of 1 mM IBMX as a phosphodiesterases inhibitor. After 10 min, intracellular cGMP levels were determined according to the manufacturer's instructions using an enzyme immunoassay kit (Amersham Biosciences).
Supplementary Figure S2: TAX2 inhibits intracellular cGMP production by endothelial cells under NO stimulation. HUVECs (1 × 10^4 per well) were seeded in 96-well plates, maintained in EGM-2 growth medium for 24 h, and then serum-starved for an additional 24 h in EBM-2 containing 0.1% (v/v) BSA. Endothelial cells were then pre-treated with 100 μM TAX2 for 15 min before addition of 10 μM DEA-NONOate. After 10 min, intracellular cGMP was quantified as described in Material & Methods. Results are expressed as percent compared to control (n = 3, each performed in triplicate; t test; * p < 0.05).
(also on this page, place not known: www.impactjournals.com/oncotarget/ Oncotarget, Materials 2015 Supplementary *p) […]

In another series the test system is HUVEC. Briefly: HUVEC viability.
Another series concerns HUVECs. Briefly: Boyden chamber / Transwell migration assay. On the procedure:
Figure 2 TAX2 peptide impairs endothelial cell migration and inhibits angiogenesis in vitro and ex vivo A. HUVECs were treated with TAX2 (100 μM) or scrambled peptide (Ctrl, 100 μM). CD47 was immunoprecipitated from total protein lysates using anti-CD47 (clone B6H12) and non-specific IgGs were used as a negative control. Immunocomplexes were then submitted to SDS-PAGE and immunoblotted (IB) using specific TSP-1 and CD47 antibodies. Histogram represents the quantification of co-immunoprecipitated TSP-1 relative to immunoprecipitated CD47. Results are expressed as percentage compared to control (n = 3 separate experiments, t test). B. HUVECs (1 × 10^5 per well) were grown at confluence and then cell proliferation was inhibited by incubating with 10 μg/mL mitomycin C for 2 h. Migration assays were performed for 9 h with or without TAX2 peptide (100 μM), as described in Materials and Methods. Photographs (100×) were taken every 3 h. Graph represents the quantification of the wounded area. […] Hoechst-stained migrating cells attached on outside surface of the top chamber were photographed (20× objective) and counted. Results are expressed as percentage of migrated cells as compared to control. […] After 8 h incubation, HUVEC tube-like formation was observed on an inverted microscope (40×) and quantification of network total length was done using ImageJ software. […] Data are expressed as the mean ± SE from at least 3 independent experiments, each performed in triplicate. […] The transcriptional level of TSP-1 was assessed by RT-PCR and normalized to β-actin. […] After 6 days incubation in the presence of 100 μM TAX2 or control peptide (Ctrl), images were taken with an inverted microscope (40×) and microvessel area was quantified using ImageJ software. […]
Figure 3 Anti-angiogenic properties of TAX2 are mediated by TSP-1 binding to CD36 A. Expression of CD36 in HUVECs was assessed by immunoblotting (left panel) and immunofluorescence staining (right panel, red). […] The presence of TSP-1 in immunocomplexes was quantified by densitometric analysis relative to immunoprecipitated CD36. […]

Turning to “CEVSQLLKGDAC (disulfide) [TAX2, CD47-derived cyclic disulfide dodecapeptide …]”, the “TSP-1 binding to CD47 (co-immunoprecipitation)” value in the series on TSP-1:CD47 is given as “specifically prevents TSP-1 binding to CD47”. Further, in series [1], the “decrease of cGMP production after NO stimulation” value is recorded as “around 25%”. The “cytotoxic effect on HUVECs” value in the series with HUVEC is “cannot be attributed to any cytotoxic effect”. Also, the HUVEC viability result in the series with HUVEC (percent compared to control treatment, t test) is on record as “not significant”. Besides, the “inhibition of endothelial cell migration (Boyden chamber)” value in the series with HUVECs (HUVECs, 100 μM, 12 h, EGM-2, mean of 5 in triplicate) amounted to 50%. In addition, the “prevention of endothelial cell migration in presence of CD36 blocking antibody” value in the series on HUVECs (HUVECs, 100 μM, 12 h, anti-CD36 10 μg/mL, n = 3) is “wholly reversed”. The “concentration of optimal inhibition of endothelial cell migration” value with HUVECs (dose-response assay, data not shown, migration format not specified) turned out to be 100 µM.

Source of the values: publication PMC4627230, “Identification of TAX2 peptide as a new unpredicted anti-cancer agent” (Oncotarget, 2015).
